According to paper PMC4949444 (Scientific Reports, 2016):

Key:
[1] = tested on: 3NP-lesioned C57BL/6 mice; assay: 3-nitropropionic acid (3NP) model of Huntington's disease; format: in vivo; settings: for COX-2 (2expΔΔct) / IL-6 (2expΔΔct) / TNF-α (2expΔΔct): striatum mRNA, mean ± SEM n=6; for COX-2 (2expΔΔct) / IL-6 (2expΔΔct) / TNF-α (2expΔΔct) / % GSH / % SOD activity / %Catalase activity: substance alone; for % GSH / % SOD activity / %Catalase activity: striatum, % of vehicle-treated control
Procedure: Figure 7 VCE-003.2 is neuroprotective in 3NP-intoxicated mice. (a) Behavioural score was determined 12 hours after 3NP intoxication. Mice were treated with VCE-003.2 (20 mg/Kg) alone or combined with T0070907 (5 mg/kg) as indicated. Animals were also treated separately with either VCE-003.2 or T0070907 alone. Hind limb clasping, general locomotor activity, hind limb dystonia and kyphosis were rated from 0 to 2 based on severity (score 0 indicates normal function and 2 indicates the most severe affected function). Values are expressed as means ± SEM (n = 6). (b) Representative images of Nissl staining performed on coronal striatal brain sections from the same mice groups. Photomicrographs of NeuN (Bar size, 50 μm) Iba-1 and glial fibrillary acidic protein (GFAP) immunostained sections through the different group of mice are also shown. (c) Quantification of the different markers was performed with Image J software. Total average number of neurons (NeuN^+), microglia (Iba1^+) and astrocytes (GFAP^+) is shown. Values are expressed as means ± SEM (n = 6). *p < 0.05, **p < 0.01, ***p < 0.001 vs. Vehicle; ^#p < 0.05, ^##p < 0.01, ^###p < 0.001 vs. 3NP; †p < 0.05, ^††p < 0.01, ^†††p < 0.001 vs. the 3NP + VCE-003.2 group.
Mice were housed under standard conditions (12-h light/dark cycle) in groups with access to food and water ad libitum. All experiments were performed in accordance with European Union guideline and approved by the Animal Research Ethic Committee of Córdoba University (2014PI/017) (3NP model) and by the Animal Research Ethic Committee of Complutense University (CEA-UCM 73/2012) (QA model). Procedures were designed to minimize the number of animals used and their suffering. Excitotoxicity was induced by intrastriatal quinolinic acid (QA) administration (100 nmol in 1 μL PBS solution, unilaterally) as previously described[41] at the following coordinates: +0.6 posterior to bregma, +1.85 medio-lateral and -2.7 dorso-ventral to dura, in 12-week-old CD1 male mice (Harlan Ibérica, Barcelona, Spain). Pharmacological manipulation with VCE-003.2 (10 mg/kg body weight) was performed i.p. daily in 2% Tween 20 and 3% DMSO in saline buffer until sacrifice. Control animals received the corresponding vehicle injections. Motor function was assessed by RotaRod analysis conducted with acceleration from 4 to 40 rpm over a period of 570 s in an LE8200 device (Harvard Apparatus, Barcelona, Spain). […] 3NP-treated animals and their respective non-lesioned controls (injected with PBS) were used for pharmacological studies with VCE-003.2. Treatments consisted of 4 i.p. injections every 24 h with 20 mg/kg VCE-003.2 or vehicle (4% DMSO plus 6,2% Tween 20 in saline buffer), with the first and the last injections 30 min before the first and the last injections of 3NP, respectively. In some experiments, mice received a combination of VCE-003.2 and the PPARγ antagonist T0070907 (5 mg/kg) injected 15 minutes before VCE-003.2. In 3NP-lesioned mice, motor activity, hindlimb clasping, dystonia, and truncal dystonia were evaluated following previously described procedures. All behavioural tests were conducted prior to drug injections to avoid acute effects of the compounds under investigation and all animals were euthanized 12 h after the last injection of 3NP and their brains removed. The right hemispheres were used to dissect the striatum which was frozen in RNAlater (Sigma-Aldrich) and stored at −80 °C for biochemical analyses. The left hemispheres were fixed in fresh 4% paraformaldehyde (in 0.1 M PBS) for 48 h at 4 °C and embedded in paraffin wax for staining and immunohistochemical analysis. In all experiments, at least 6 animals were used per experimental group.
Free floating coronal brain slices ([…]) were processed as previously described. […]

Keap1/Nrf2 pathway = Keap1/Nrf2 pathway activation (unpublished results)
3NP-lesioned mice = settings: cited from earlier work
[2] = Cysteamine recovery assay (thiol trapping)
Procedure: cysteamine to form polar and not extractable adducts.
(§1) Determination of ROS: N2a cells were seeded at 25x 10^3 cells/ml in 96-well plates and incubated with 0.25 ȝM 5-(and-6 )-chloro meth yl-2ƍ,7ƍ-dichlorodihydrofluorescein diacetate acet yl ester (C M-H 2 DCFDA) for 20 minutes at 37°C. Then, the cells were treated with either VCE-003 or VCE-003.2 for 2 hours. Cells exposed to pro-oxidant tert-Butyl h ydroperoxide (TBHP) were used as positive control. H 2 DCFDA oxidation was detected using an Incuc yteTM Live-Cell Imaging S ystem (Hertfordshire, UK).
(§2) Nrf2 transcriptional assay: To study Nrf2 transcriptional activity N2a cells were seeded (105/ml) in 24-well plates and transientl y transfected with the plasmid NQO1-ARE-Luc using Roti©-Fect following the manufacturer’s instructions (Carl Roth, Karlsruhe, German y). After 24 hours, cells were incubated wi th the compounds at the concentrations indicated during 6 hours and the luciferase activit y was determined using an Autolumat LB 953 (EG&G Berthold, Bad Wildbad, Germany). Protein content was determined b y the Bradford method to calculate R LU/Pg of protein and the results were expressed as a fold induction over untreated cells.

N2a cells [3] = assay: N2a cytotoxicity assay (MTT); format: cell-based; settings: 24 hours
Procedure: Figure 1 VCE-003.2 synthesis and characterization. (a) Schematic representation of VCE-003.2 synthesis. […] The indicated concentrations were tested and results were plotted to obtain the polynomial trend on a logarithmic range. IC50 values are indicated within the graph. […]. HEK293 cells were co-transfected with GAL4-PPARγ and GAL4-luc and incubated with the indicated compound concentrations for 6 hours prior to luciferase activity determination. Results are expressed as the fold induction ± S.D. relative to untreated control. (d) N2a cells were incubated with VCE-003 and VCE-003.2 as indicated during 24 hours and cell viability was determined by the MTT assay. Results are expressed as percentage of cell viability against the negative control (100%). (e) N2a cells were pre-treated with the compounds for 30 min and incubated during 24 h with 15 mM glutamate and cell viability determined by MTT. Results are expressed as percentage of cell viability against the negative control (100%). All experiments are shown as mean ± S.D. from at least three independent experiments. Statistics: *^,#,†p < 0.05, **^,##,††p < 0.01 and ***^,###p < 0.001. […] | Briefly, N2a cells were seeded at a density of 1 × 10^3 cells/well in 96-well plates, treated with increasing concentrations of VCE-003 or VCE-003.2 for 24 hours and cell viability was measured by the MTT method. […]. […]

Nrf2 pathway = assay: Nrf2 transcriptional assay (NQO1-ARE-Luc) in N2a cells; format: cell-based; settings: 6 hours
Procedure: as §2
Supplementary Figure S1. Non-elect rophilic activity for VCE-003.2. (a) Reactive ox ygen species production.
In cu c yt e TM Liv e-Cell Im agin g S ystem. Results are ex pressed as m ean of t otal integrated intensity (ROS positive cells) ± S.D. (b) Effect on Nrf2 transcriptional activity. N2a cells were transientl y trans fected with the NQO1-ARE-Luc plasmid and incubated with the indicated compound concentrations for 6 hours prior to luciferase activit y determination.
Results are expressed as the fold induction ± S.D. relative to untreated control. All the results are representative of at least three independent experiments. Statistics: **p<0.01 VCE-003 treatment vers us Vehicle treated cells.

N2a cells [4] = assay: Reactive oxygen species production in N2a cells (CM-H2DCFDA); format: cell-based; settings: 2 hours
Procedure: as §1
Supplementary Figure S1. Non-elect rophilic activity for VCE-003.2. (a) Reactive ox ygen species production. N2a cells were stained with CM-H2DCFDA and treated with VCE-003 or VCE-003.2 for 2 hours. Then, reactive ox ygen sp ecies were measured b y In cu c yt e TM Liv e-Cell Im agin g S ystem. Results are ex pressed as m ean of t otal integrated intensity (ROS positive cells) ± S.D. (b) Effect on Nrf2 transcriptional activity.
VCE-003 treatment vers us Vehicle treated cells.

| Compound | behavioural score, substance alone ([1]; mice given the substance alone) | COX-2 (2expΔΔct) [1] | IL-6 (2expΔΔct) [1] | TNF-α (2expΔΔct) [1] | % GSH [1] [%] | % SOD activity [1] | %Catalase activity [1] | further results |
| --- | --- | --- | --- | --- | --- | --- | --- | --- |
| O=C(O)CC[N+](=O)[O-] [3NP, 3-nitropropionic acid, reference compound] | high scores in hindlimb clasping, locomotor activity, hindlimb dystonia and kyphosis | 4.69 ± 0.09^* 2expΔΔct | 4.28 ± 0.08^* 2expΔΔct | 5.19 ± 0.327^** 2expΔΔct | 67.16 ± 5.06 | 56.56 ± 1.05^** % | 58.85 ± 2.17^*** % | number of neurons in the striatum (Nissl, NeuN), substance alone ([1]; mice given the substance alone): reduced the number of neurons in the striatum |
| C=C(C)[C@@H]1CCC(C)=C[C@H]1C1=C(O)C(=O)C(CCCCC)=CC1=O [CBD-hydroxy-quinone] | – | – | – | – | – | – | – | activation of the Keap1/Nrf2 pathway (Keap1/Nrf2 pathway): activates the Keap1/Nrf2 pathway |
| CCCCCc1cc(O)c(C/C=C(\C)CCC=C(C)C)c(O)c1 [CBG, cannabigerol] | – | – | – | – | – | – | – | levels of GSH in the brain (3NP-lesioned mice): restores the levels of GSH in the brain of 3NP-lesioned mice |
| O=C(Nc1ccncc1)c1cc([N+](=O)[O-])ccc1Cl [T0070907, reference compound] | Neither VCE-003.2 nor T0070907 alone influenced the behavior of the animals | 1.45 ± 0.82 2expΔΔct | 1.57 ± 0.51 2expΔΔct | 1.54 ± 0.75 2expΔΔct | 115.82 ± 11.23 | 97.61 ± 27.44% | 92.18 ± 4.1% | – |
| CCCCCC1=CC(=O)C(C/C=C(\C)CCC=C(C)C)=C(O)C1=O [VCE-003, reference compound] | – | – | – | – | – | – | – | recovery after treatment with cysteamine (thiol-trapping reactivity) [2]: undetectable in the residue; cell viability / cytotoxic activity (N2a cells [3]): clear cytotoxic activity at the highest concentrations tested; activation of the Nrf2 pathway (Nrf2 pathway): activated the Nrf2 pathway; induction of reactive oxygen species (ROS) (N2a cells [4]): induced reactive oxygen species (ROS) |
